The values below come from ChEMBL document CHEMBL1201862, “PubChem BioAssay data set” (2004).

Structures are written as SMILES.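 Protocol summary: plate cells (96-well), add compound at 5 concentrations, incubate 48 h, interpolate endpoints linearly. Abbreviation: GI50, concentration required for 50% inhibition of growth.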 Calls of active or inactive are those of the source. No stated cut-off is given here; in the data, active = GI50 up to about 1.1 µM and inactive = higher.

Test systems include KM12; PC-3; NCI-H522; SN12C; ACHN; SF-295; OVCAR-8; HT-29; T47D; MOLT-4; A498; CAKI-1; COLO 205; MDA-N; Hs-578T; IGROV-1; SK-MEL-28; SK-MEL-5; HOP-92; SR.
What all share (assay): DTP human tumour cell line panel, 48 h

Take `CC1(C)C2CCC(=O)C1CC2` (stereo unspecified): the GI50 in the assay with KM12, in the assay on PC-3, in the assay on NCI-H522, in the assay on SN12C, in the assay with ACHN and with SF-295 was > 100 µM (inactive) each time. In addition, the GI50 with OVCAR-8, in the assay on HT-29, with T47D, in the assay on MOLT-4, in the assay on A498 and in the assay on CAKI-1 was > 100 µM (inactive) in each case. The GI50 in the assay with COLO 205, with MDA-N, in the assay on Hs-578T, in the assay on IGROV-1, in the assay with SK-MEL-28 and with SK-MEL-5 was > 100 µM (inactive) each time.

Consider `Cc1ccc(N2C=Nn3c(nc4sc5c(c4c3=O)CCCC5)C2)cc1`, for which the GI50 with KM12 was 62.4 µM (inactive); with PC-3, 49.4 µM (inactive); in the assay on NCI-H522, 39.1 µM (inactive); in the assay with SN12C, 63.8 µM (inactive); with ACHN, 46.5 µM (inactive); with SF-295 it was 44.8 µM (inactive). The GI50 in the assay on OVCAR-8 was 62.1 µM (inactive); in the assay with HT-29, 47.1 µM (inactive); with T47D, 43.3 µM (inactive); in the assay on MOLT-4, > 100 µM (inactive); with A498, 54.5 µM (inactive); with CAKI-1 it was 46 µM (inactive). Also, the GI50 in the assay on COLO 205 is 67.8 µM (inactive); in the assay with MDA-N it was 70.5 µM (inactive); with Hs-578T, 28.1 µM (inactive); in the assay on IGROV-1, 88.3 µM (inactive); with SK-MEL-28 it was 93.5 µM (inactive); with SK-MEL-5, 29.8 µM (inactive). Also, the GI50 in the assay with HOP-92 is > 100 µM (inactive).

Consider `Clc1sc(Cl)c2c1[C@@H](Cl)C[C@@H]2Br`, for which the GI50 in the assay with KM12 is 90.6 µM (inactive); in the assay with PC-3 it was > 100 µM (inactive); in the assay with NCI-H522, 30.8 µM (inactive); in the assay on SN12C, > 100 µM (inactive); with ACHN, > 100 µM (inactive); with SF-295, > 100 µM (inactive). The GI50 was > 100 µM (inactive) in the assay on OVCAR-8; > 100 µM (inactive) in the assay with HT-29; 44.7 µM (inactive) in the assay on T47D; 18.6 µM (inactive) with MOLT-4; > 100 µM (inactive) with CAKI-1; > 100 µM (inactive) in the assay with COLO 205. The GI50 in the assay on MDA-N is 84.3 µM (inactive); with Hs-578T, 65.8 µM (inactive); in the assay on SR, 18.8 µM (inactive); in the assay on IGROV-1, 72.9 µM (inactive); in the assay on SK-MEL-28 it was > 100 µM (inactive); in the assay on SK-MEL-5, > 100 µM (inactive). Also, the GI50 in the assay with HOP-92 is 37.4 µM (inactive).

As for `COc1ccc(-c2c(/C=N/OCC(=O)O)c3sc4ccccc4n3c2/C=N/OCC(=O)O)cc1`, the GI50 in the assay with KM12, with PC-3, with NCI-H522, in the assay with SN12C, in the assay on ACHN and in the assay with SF-295 was > 50 µM (inactive) each time. The GI50 in the assay on OVCAR-8, in the assay on HT-29, with T47D, in the assay with MOLT-4, with CAKI-1 and in the assay on COLO 205 was > 50 µM (inactive) each time. Moreover, the GI50 in the assay on MDA-N was > 50 µM (inactive); in the assay on Hs-578T, > 50 µM (inactive); in the assay on IGROV-1, > 50 µM (inactive); in the assay with SK-MEL-28, > 50 µM (inactive); in the assay with SK-MEL-5, > 50 µM (inactive); in the assay on HOP-92, 21.8 µM (inactive).

Regarding `O=C(CC(C(=O)c1cccs1)c1ccsc1)c1ccc(Cl)s1` (stereo unspecified), the GI50 is > 100 µM (inactive) with KM12; > 100 µM (inactive) with PC-3; > 100 µM (inactive) with SN12C; 96.2 µM (inactive) with ACHN; > 100 µM (inactive) in the assay on OVCAR-8; 75.9 µM (inactive) in the assay with HT-29. The GI50 in the assay on T47D was 44.3 µM (inactive); in the assay with MOLT-4 it was 47.3 µM (inactive); with A498, > 100 µM (inactive); in the assay with CAKI-1 it was > 100 µM (inactive); in the assay on COLO 205 it was > 100 µM (inactive); in the assay on Hs-578T, 60.1 µM (inactive). The GI50 with SR was 39.2 µM (inactive); with IGROV-1, > 100 µM (inactive); in the assay on SK-MEL-28, > 100 µM (inactive); in the assay with SK-MEL-5 it was 70.3 µM (inactive).

As for `Cc1ccc([N+](=O)[O-])cc1S(=O)(=O)Nc1ccc(C2=NN(S(=O)(=O)c3cc([N+](=O)[O-])ccc3C)C(c3ccco3)C2)cc1` (stereo unspecified), the GI50 in the assay with KM12 was 39.4 µM (inactive); with PC-3 it was 45.5 µM (inactive); with NCI-H522 it was 45 µM (inactive); in the assay with SN12C, 44.8 µM (inactive); with ACHN, 36.6 µM (inactive); in the assay on SF-295 it was 32.8 µM (inactive). For the same molecule, the GI50 is 44.5 µM (inactive) in the assay with OVCAR-8; 54 µM (inactive) in the assay on HT-29; 28.6 µM (inactive) with T47D; 28.2 µM (inactive) with MOLT-4; 45.8 µM (inactive) in the assay with CAKI-1; 39.4 µM (inactive) in the assay with COLO 205. In addition, the GI50 was 43.9 µM (inactive) in the assay on MDA-N; > 100 µM (inactive) in the assay with Hs-578T; 33.5 µM (inactive) in the assay on SR; 29.6 µM (inactive) in the assay on IGROV-1; > 100 µM (inactive) in the assay on SK-MEL-28; 30.3 µM (inactive) in the assay on SK-MEL-5. For the same molecule, in the assay on HOP-92, the GI50 was 16.7 µM (inactive).

Consider `Oc1ccc(-c2cc(-c3c(O)cc(O)cc3O)on2)cc1`, for which the GI50 is 72.6 µM (inactive) in the assay with KM12; 48 µM (inactive) with PC-3; 51.6 µM (inactive) in the assay on NCI-H522; 80.5 µM (inactive) with SN12C; 36.4 µM (inactive) in the assay on ACHN; 74.3 µM (inactive) in the assay with SF-295. Also, the GI50 in the assay with OVCAR-8 was 55.6 µM (inactive); in the assay with HT-29 it was 37 µM (inactive); in the assay on T47D, 45.5 µM (inactive); with MOLT-4 it was 38.5 µM (inactive); in the assay on CAKI-1, 94.6 µM (inactive); in the assay with COLO 205 it was > 10 µM (inactive). Also, the GI50 in the assay with MDA-N is 50.2 µM (inactive); with Hs-578T it was 38.2 µM (inactive); in the assay with SR, 81.3 µM (inactive); in the assay with IGROV-1 it was 51.1 µM (inactive); in the assay with SK-MEL-28 it was 52.8 µM (inactive); with SK-MEL-5 it was 42.3 µM (inactive).

`NC(=S)N/N=C1\CCCC1C(O)(C(F)(F)Cl)C(F)(F)Cl` (stereo unspecified): the GI50 in the assay with KM12, in the assay on PC-3, in the assay with NCI-H522, in the assay on SN12C, with ACHN and in the assay with SF-295 was > 10 µM (inactive) in each case. Moreover, the GI50 in the assay with OVCAR-8, in the assay on HT-29, in the assay with T47D, with MOLT-4, with A498 and in the assay with CAKI-1 was > 10 µM (inactive) each time. For the same molecule, the GI50 with COLO 205 is > 10 µM (inactive); in the assay on Hs-578T, > 10 µM (inactive); in the assay with SR it was > 10 µM (inactive); in the assay with IGROV-1, > 10 µM (inactive); with SK-MEL-28, > 10 µM (inactive); in the assay with SK-MEL-5 it was 2.01 µM (inactive). Moreover, in the assay on HOP-92, the GI50 was > 10 µM (inactive).

For the molecule `C=C1c2ccccc2Oc2nc3nc(N)c(C#N)c(N)c3c(N)c21`, the GI50 with KM12 is 18.6 µM (inactive); with PC-3 it was 19.3 µM (inactive); in the assay on SN12C, 37.6 µM (inactive); with ACHN, 40.5 µM (inactive); in the assay with SF-295, 30.3 µM (inactive); with OVCAR-8, 16.4 µM (inactive). In addition, the GI50 in the assay with HT-29 is 23.1 µM (inactive); with T47D, 51.1 µM (inactive); with MOLT-4 it was 23.7 µM (inactive); with A498 it was > 100 µM (inactive); in the assay with CAKI-1, 30.8 µM (inactive); in the assay on COLO 205, 19.6 µM (inactive). In addition, the GI50 with MDA-N was 38.4 µM (inactive); in the assay on Hs-578T, 21.9 µM (inactive); in the assay on IGROV-1, 2.39 µM (inactive); in the assay with SK-MEL-28, 41.8 µM (inactive); with SK-MEL-5 it was 17.6 µM (inactive); in the assay on HOP-92, 55.2 µM (inactive).

In the case of `C=C1CCC[C@@H](C)C(O)[C@@H]2OC(=O)C(=C)[C@@H]2C[C@@H](OC(C)=O)[C@@]2(C)CC[C@@H]1O2` (stereo partly specified), the GI50 is 7.76 µM (inactive) in the assay on KM12; 8.39 µM (inactive) with PC-3; 0.916 µM (active) with NCI-H522; 8.51 µM (inactive) in the assay on SN12C; 6.89 µM (inactive) with ACHN; 11.1 µM (inactive) in the assay on SF-295. Moreover, the GI50 in the assay on OVCAR-8 is 7.19 µM (inactive); in the assay with HT-29 it was 8.47 µM (inactive); in the assay on T47D, 9.66 µM (inactive); in the assay on MOLT-4 it was 4.84 µM (inactive); in the assay on A498, 9.84 µM (inactive); in the assay on CAKI-1, 6.89 µM (inactive). Besides, the GI50 in the assay on COLO 205 was 6.37 µM (inactive); in the assay on Hs-578T, 8.67 µM (inactive); in the assay on SR it was 1.75 µM (inactive); with IGROV-1, 8.15 µM (inactive); in the assay with SK-MEL-28, 7.98 µM (inactive); with SK-MEL-5, 6.92 µM (inactive). For the same molecule, in the assay with HOP-92, the GI50 was 7.96 µM (inactive).

For the molecule `Clc1n[nH]c2ccccc12`, the GI50 in the assay with KM12, with PC-3, with NCI-H522, in the assay with SN12C, in the assay on ACHN and in the assay on SF-295 was > 100 µM (inactive) in each case. The GI50 with OVCAR-8, in the assay with HT-29, with T47D, in the assay on MOLT-4, with A498 and in the assay on COLO 205 was > 100 µM (inactive) throughout. Besides, the GI50 with MDA-N, in the assay on Hs-578T, in the assay on IGROV-1, in the assay with SK-MEL-28, with SK-MEL-5 and with HOP-92 was > 100 µM (inactive) in each case.

As a reminder, the GI50 is the concentration at which growth is held to half of that of the control.
